Experimental data as given in article PMC12498411, “Antidepressant-like Properties of a Selenium-Containing Pyridinium Salt Explored through In Vitro, In Vivo, and In Silico Approaches” (ACS Chemical Neuroscience, 2025).
Like-named read-outs stand apart in the source and are kept apart here. Each block holds one compound with its values, some of them ahead of it.

Columns and labels:
rodent = conditions: literature value, cited from earlier work
[1] = test system: cerebral lipid peroxidation; experiment: TBARS assay, SNP-induced lipid peroxidation in brain homogenate; format: biochemical, mouse; conditions: for Concentrations effective in reversing SNP-induced oxidative damage (TBARS): tested up to 500 μM
Description: (§1) Brains from mice of both sexes were used for in vitro assays, each performed in duplicate across three independent experiments (n = 3), conducted on different days.
The brain tissues were homogenized in a 50 mM Tris-HCl buffer at pH 7.4, using a 1:10 ratio (w/v). The freshly prepared homogenate was then centrifuged at 900g for 10 min, yielding a low-speed supernatant (S1). Lipid peroxidation was evaluated using the TBARS method as previously described. Lipid peroxidation was induced by 0.3 mM SNP. A 100 μL aliquot of S1 was incubated for 1 h at 37 °C in the presence of the compounds 3A, 3B, and 3C at concentrations ranging from 25 to 500 μM, and SNP or water (to control). The color reaction was initiated by adding 500 μL of a 0.8% thiobarbituric acid (TBA) solution, followed by 200 μL of 8.1% sodium dodecyl sulfate (SDS) and 500 μL of acetic acid (pH 3.4). The reaction mixture was incubated at 95 °C for 1 h. The absorbance was measured using a spectrophotometer at a wavelength of 532 nm. Trolox (100 μM), an antioxidant analogous to vitamin E, served as a positive control. The results were reported as nmol TBARS per gram of tissue. A parallel TBARS experiment was also conducted using a standard alkyl aryl selenide (2-((phenylselanyl)-methyl)-pyridine), dissolved in DMSO at the same concentrations tested, ranging from 25 to 500 μM.

MAO-A = target: T1, MAO-A (Mus musculus, UniProt Q64133); experiment: Cerebral MAO-A activity, mitochondria-enriched mouse brain fraction (kynuramine, fluorimetric); format: biochemical
T1 construct: Mitochondria-enriched brain preparations were obtained in accordance with established methodology outlined in literature; from tissue; host or cells: mouse brain, mitochondria-enriched fraction
T1 sequence (Q64133 1-526): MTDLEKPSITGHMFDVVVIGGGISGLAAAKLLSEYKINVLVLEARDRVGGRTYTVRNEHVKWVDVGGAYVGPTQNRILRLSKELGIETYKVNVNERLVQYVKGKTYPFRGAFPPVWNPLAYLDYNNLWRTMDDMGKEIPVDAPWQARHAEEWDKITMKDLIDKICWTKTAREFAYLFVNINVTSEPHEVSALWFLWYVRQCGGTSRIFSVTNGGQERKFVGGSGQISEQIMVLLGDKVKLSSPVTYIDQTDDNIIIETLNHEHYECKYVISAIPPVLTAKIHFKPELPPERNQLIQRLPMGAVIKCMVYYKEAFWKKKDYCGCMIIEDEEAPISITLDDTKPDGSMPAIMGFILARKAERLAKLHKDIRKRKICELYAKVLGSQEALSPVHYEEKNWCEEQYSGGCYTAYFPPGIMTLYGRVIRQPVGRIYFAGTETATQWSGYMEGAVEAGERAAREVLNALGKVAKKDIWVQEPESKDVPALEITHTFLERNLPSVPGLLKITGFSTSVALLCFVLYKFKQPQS
Description: (§2) Mitochondria-enriched brain preparations were obtained in accordance with established methodology outlined in literature. The homogenate was prepared using the mouse brain tissue and a homogenization buffer (Na2PO4/KH2PO4/sucrose) at a ratio of 1:4 (w/v). The homogenate was centrifuged at 900g at 4 °C for 5 min. The resulting supernatant was separated and subjected to centrifugation at 12,500g for 15 min. The resulting pellet was resuspended in the homogenization buffer and subjected to a further round of centrifugation under identical conditions. Finally, the mitochondrial pellet obtained was reconstituted in an assay buffer solution (Na2PO4/KH2PO4/KCl). Protein concentration was estimated using the Bradford method and standardized as 1 mg/mL for the experiments.
(§3) MAO activity was assessed following the method outlined by Krajl, with some modifications by Matsumoto. Briefly, a 100 μL aliquot of the mitochondria-rich fraction was incubated at 37 °C for 5 min with specific MAO inhibitors: clorgyline (250 nM, a MAO-A inhibitor), or pargyline (250 nM, a MAO-B inhibitor). Then, 10 μL of each compound was introduced at varying concentrations (25–200 μM). Water (10 μL) was used in the control tubes. Afterward, the substrate, 20 μL of kynuramine dihydrobromide, was added to achieve a final concentration of 90 μM for MAO-A and 60 μM for MAO-B. The samples were incubated at 37 °C for 30 min. The reaction was halted by the addition of 300 μL of 10% trichloroacetic acid (TCA). After centrifuging at 16,000g for 15 min, an aliquot of 800 μL of the supernatant was mixed with 1 mL of 1 M sodium hydroxide (NaOH). The samples were measured using a fluorimeter with excitation at 315 nm and emission at 380 nm.

MAO-B = target: T2, MAO-B (Mus musculus, UniProt Q8BW75); experiment: Cerebral MAO-B activity, mitochondria-enriched mouse brain fraction (kynuramine, fluorimetric); format: biochemical
T2 construct: Mitochondria-enriched brain preparations were obtained in accordance with established methodology outlined in literature; from tissue; host or cells: mouse brain, mitochondria-enriched fraction
T2 sequence (Q8BW75 1-520): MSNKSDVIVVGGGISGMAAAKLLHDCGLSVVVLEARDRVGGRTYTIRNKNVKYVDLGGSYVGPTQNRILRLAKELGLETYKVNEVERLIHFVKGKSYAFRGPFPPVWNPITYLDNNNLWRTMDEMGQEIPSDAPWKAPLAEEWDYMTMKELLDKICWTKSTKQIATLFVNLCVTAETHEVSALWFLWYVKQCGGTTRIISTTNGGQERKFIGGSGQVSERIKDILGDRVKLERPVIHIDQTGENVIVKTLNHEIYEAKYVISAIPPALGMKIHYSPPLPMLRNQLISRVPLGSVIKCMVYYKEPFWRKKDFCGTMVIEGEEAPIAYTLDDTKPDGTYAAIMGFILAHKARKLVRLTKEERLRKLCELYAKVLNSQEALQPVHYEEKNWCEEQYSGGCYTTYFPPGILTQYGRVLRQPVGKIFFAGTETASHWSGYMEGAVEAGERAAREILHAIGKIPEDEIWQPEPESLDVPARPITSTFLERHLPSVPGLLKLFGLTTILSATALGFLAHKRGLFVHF
Description: as §2, §3

protein carbonylation = experiment: Protein carbonylation assay, SNP-induced, brain homogenate; format: biochemical, mouse
Description: as §1
The evaluation of protein carbonylation was performed according to a previously established protocol, using freshly prepared brain homogenate diluted at a 1:8 ratio in Tris-HCl buffer. Test compounds (10 μL), ranging in concentrations from 25 to 200 μM, were individually introduced into separate test tubes. Trolox (100 μM) served as the standard antioxidant. The diluted brain homogenate (940 μL) was then added to all tubes, followed by SNP (1 mM) as the inducing oxidative agent (50 μL). The tubes were promptly incubated at 37 °C for 2 h. Following incubation, 2 M HCl was added to blank tubes (200 μL), while 10 mM 2,4-dinitrophenyl-hydrazine (DNPH) solution was added to test tubes (200 μL). The mixture was incubated for 1 h in darkness at room temperature, with intermittent stirring every 15 min to facilitate the color reaction. Subsequently, 500 μL of denaturation buffer, 1.5 mL of ethanol, and 1.5 mL of hexane were added to all tubes, which were then vigorously shaken for 40 s. The tubes were then centrifuged at 900g for 15 min, and the supernatant was carefully decanted. The resulting pellet was washed twice with 1 mL of ethanol/ethyl acetate solution (1:1). After allowing the pellet to dry air for 2 min, it was resuspended in 1 mL of denaturation buffer and subjected to spectrophotometric analysis at 370 nm. The findings were quantified as nmol carbonyl per gram of tissue.

female Swiss mice = test system: female Swiss mice; design: method as in previously conducted by our research group; conditions: same methodology layout; ref previously conducted by our research group; cited from earlier work
[2] = design: method as in Prigol and colleagues; conditions: ref Prigol and colleagues; cited from earlier work
[3] = design: method as in Prigol and colleagues; conditions: 500 mg/kg dissolved in oil, per oral; ref Prigol and colleagues; cited from earlier work
[4] = cited from earlier work
male Swiss mice [5] = experiment: Tail suspension test (TST); format: in vivo, mouse
Description: A behavioral screening was conducted using the three salts to determine their potential antidepressant-like actions (n = 7–9 mice/group).
(§4) A dosage of 5 mg/kg (intragastric route, i.g., by gavage) was administered to all groups receiving the salts. […] The TST was conducted 30 min following drug administration, with the OFT being performed 4 min prior to the TST.
(§5) Following the selection of the most promising salt during screening (Compound 3B), an analysis of the compound’s time-response curve was conducted in the mouse TST. For this purpose, the animals were divided into five groups: (I) control (water; i.g.), (II) the group receiving compound 3B 15 min prior to TST, (III) the group receiving compound 3B 30 min before TST, (IV) the group receiving compound 3B 60 min before TST, and (V) the group receiving compound 3B 120 min before TST. The dosage of salt was standardized at 5 mg/kg (i.g). OFT was conducted 4 min prior to the TST.
(§6) After choosing a suitable preadministration time, the dose–response curve of the compound at this fixed time was analyzed. The animals were categorized into […]: I) a control group (administered water; i.g.) and groups II, III, IV and V) receiving compound 3B at doses of 0.5 mg/kg, 1 mg/kg, 2.5 mg/kg, and 5 mg/kg (i.g.), respectively. […] Thirty minutes postadministration, the animals underwent the TST. Four minutes prior to the TST, they underwent the OFT.
This test aims to assess depressive-like behavior and antidepressant-like action of therapies by measuring immobility. […] The test was conducted using a mouse suspension box made of wood, measuring 50 cm × 21 cm × 21 cm, designed to prevent any visual or physical interaction among the animals. A suspension bar was positioned atop the box, and the mouse’s tail was affixed to the bar using adhesive tape. The test duration was 6 min, during which the animal’s latency to the first immobility episode and the total duration of immobility (sec) were assessed.

male Swiss mice [6] = experiment: Open field test (OFT) before the TST; format: in vivo, mouse; conditions: 3B 0.5–5 mg/kg i.g.; fluoxetine 20 mg/kg i.p.
Description: as §4, §5, §6
The aim of this behavioral test is to assess the locomotion and exploration behavior of the animals using an open field apparatus measuring 30 cm × 30 cm × 15 cm, constructed from plywood with a floor divided into nine quadrants, facilitating free movement for the animals. During the OFT, the animals were positioned in the center of the apparatus and subjected to a 5 min testing period, following the protocol outlined in literature. The number of quadrant crossings and rearings was recorded and quantified during testing phase.

[7] = salts 5 mg/kg i.g., fluoxetine 20 mg/kg i.p., 30 min before test

SMILES: COc1ccc(C(CN(C)C)C2(O)CCCCC2)cc1 (stereo not drawn) [venlafaxine]
- Reduction in rodent locomotor activity (rodent; 50 mg/kg): 62%

SMILES: c1ccc([Se]Cc2ccccn2)cc1 [2-((phenylselanyl)methyl)pyridine, reference compound]
- Concentrations effective in reversing SNP-induced oxidative damage (TBARS) ([1]; mouse brain homogenate): 500 µM

SMILES: O=C(C[n+]1ccccc1C[Se]c1ccccc1)c1ccc(Cl)cc1.[Br-] [Compound 3C, 1-(2-(4-chlorophenyl)-2-oxoethyl)-2-((phenylselanyl)methyl)pyridin-1-ium bromide]
- IC50 (MAO-A): 77.6 µM
- Concentrations with significant inhibition of MAO-A activity (MAO-A; tested 25–200 μM, Dunnett vs control): ≥ 50 µM
- IC50 (MAO-B): 125 µM
- IC50 ([1]; mouse brain homogenate, SNP-induced): 102 µM
- Concentrations effective in reversing SNP-induced oxidative damage (TBARS) ([1]; mouse brain homogenate): 50 to 500 µM
- IC50 (protein carbonylation; mouse brain homogenate, SNP-induced, 25–200 μM): 111 µM
- Signs of toxicity in acute oral toxicity study (female Swiss mice): no signs of toxicity

SMILES: c1ccc([Se][Se]c2ccccc2)cc1 [(PhSe)2, diphenyl diselenide]
- Solubility in isotonic phosphate buffer [2]: poor solubility in isotonic phosphate buffer
- Selenium levels in plasma [3]: very low levels of selenium in plasma

SMILES: c1ccc([Se]c2c(-c3ccccc3)cn3ccccc23)cc1 [2-phenyl-1-(phenylselanyl)indolizine]
- Effective dose (previously studied related molecule) [4]: ≥ 10 mg/kg

SMILES: CN(C)CC/C=C1\c2ccccc2CSc2ccccc21 [dothiepin]
- Reduction in rodent locomotor activity (rodent; 10 mg/kg): 73%

- OFT number of rearings, dose–response experiment (male Swiss mice [6]): decreased rearings
SMILES: CNCCC(Oc1ccc(C(F)(F)F)cc1)c1ccccc1 (stereo not drawn) [Fluoxetine, reference compound]
- TST immobility time, positive control in dose–response experiment (male Swiss mice [5]; 20 mg/kg i.p., 30 min): effectively reduced the immobility time
- TST latency time, positive control in dose–response experiment (male Swiss mice [5]; 20 mg/kg i.p., 30 min): as also observed in the fluoxetine group
- TST latency time to first immobility episode, screening (male Swiss mice [5]; [7]): significantly increased latency time
- TST total immobility time, screening (male Swiss mice [5]; [7]): shorter total immobility times
- Reduction in rodent locomotor activity (rodent; 30 mg/kg): 89%

SMILES: Cc1c(C)c2c(c(C)c1O)CCC(C)(C(=O)O)O2 (stereo not drawn) [Trolox, reference compound]
- Effect of positive control on SNP-induced TBARS ([1]; 100 μM): effectively reversed oxidative damage
- Effect of positive control on protein carbonylation (protein carbonylation; 100 μM): effective
